Entries after “also recorded” stand apart in the source; their conditions may differ.
How the values were obtained:
Mbnl1^ΔE3/ΔE3 mice = assay: Electromyography of myotonia, Mbnl1^ΔE3/ΔE3 mice; type: in vivo; conditions: TA muscle, 3 weeks
Description: FIGS. 27A, 27B, 27C, 27D, and 27E show antisense morpholino represses exon 7a inclusion, restores ClC-1 protein expression, and rescues myotonia in Mbnl1^ΔE3/ΔE3 mice. […] Bar=20 μM. […] Mean±s.d.; n=3 per group; **P<0.0001 antisense- versus invert-treated control; ANOVA.
EMG was performed under general anesthesia as described previously (Kanadia, R. N., et al. (2003) Science 302:1978-1980). Images and video recordings of electromyographic myotonia in HSA^LR and Mbnl1^ΔE3/ΔE3 mice are shown in previous reports (Kanadia, R. N., et al. (2003) Science 302:1978-1980; Mankodi, A., et al. (2000) Science 289:1769-1773). A minimum of 15 needle insertions were performed for each muscle examined Myotonic discharges were graded on a 4 point scale: 0, no myotonia; 1, occasional myotonic discharge in <50% of needle insertions; 2, myotonic discharge in >50% of needle insertions; 3: myotonic discharge with nearly every insertion.

ClC-1 exon 7a = assay: RT-PCR of ClC-1 exon 7a splicing after ClC-1 antisense morpholino, HSA^LR mice; type: in vivo; conditions: TA muscle; for comparison of exon 7a skipping between antisense morpholinos: 3 weeks, 20 μg total
Description: FIGS. 21A, 21B, 21C, and 21D show the effects of antisense morpholino targeting the 3′ splice junction of ClC-1 exon 7a on splicing and myotonia in HSA^LR transgenic mice. Antisense morpholino targeting the 3′ splice junction of ClC-1 exon 7a was injected into tibialis anterior muscle of HSA^LR mice under general anesthesia (sequence 5′-[…]-3′ (SEQ ID NO: 4)). The contralateral muscle was injected with morpholino having the inverted sequence (5′-[…]-3′(SEQ ID NO: 5)). Uptake into muscle fibers was enhanced by in vivo electroporation. The determination of which side received the antisense morpholino was randomized. 21 days later, myotonia was evaluated by electromyography and muscle was harvested for RT-PCR analysis of ClC-1 alternative splicing. Electromyography was blinded to the randomization.
HSA^LR (Mankodi, A., et al. (2000) Science 289:1769-1773) or Mbnl1^ΔE3/ΔE3 mice (Kanadia, R. N., et al. (2003) Science 302:1978-1980) were anesthetized by intraperitoneal injection of 100 mg/kg ketamine, 10 mg/kg xylazine, and 3 mg/kg acepromazine. TA muscle was pretreated by intramuscular injection of bovine hyaluronidase (15 μl, 0.4 U/μl) (Sigma) (McMahon, J. M., et al. (2001) Gene Ther 8:1264-1270). Two hours later, 10 or 20 μg of morpholino in a total volume of 20 μl phosphate buffered saline (PBS) was injected using a 30-gauge needle. TA muscle was then electroporated using electrodes placed parallel to the long axis of the muscle. Electroporation parameters were 100 V/cm, 10 pulses at 1 Hz, and 20 ms duration per pulse. Antisense or control morpholino with inverted sequence was injected into TA muscles of opposite limbs. The determination of which TA received antisense morpholino was randomized, and investigators remained blinded to this assignment until EMG analyses were completed. Other analyses were performed without blinding. For experiments to determine the distribution of injected oligos, the antisense morpholino was labeled with carboxyfluorescein and cryosections of muscle (10 μM) were examined by fluorescence microscopy, with or without fixation in 4% paraformaldehyde. Some sections were co-labeled with TRITC-wheat germ agglutinin (Parsons, S. A., et al. (2003) Mol Cell Biol 23:4331-4343) (50 μg/ml in PBS; Sigma) and 4′,6-diamidino-2-phenylindole (DAPI) to highlight the surface membranes and nuclei of muscle fibers.
Mice were sacrificed three or eight weeks after morpholino injection. TA muscles were removed and frozen in liquid nitrogen. Total RNA was isolated with TriReagent (Molecular Research Center). cDNA synthesis was primed with oligo dT as described previously (Mankodi, A., et al. (2002) Mol Cell 10:35-44). Assays for alternative splicing of ClC-1 and Titin were described previously (Mankodi, A., et al. (2002) Mol Cell 10:35-44; Lin, X., et al. (2006) Hum Mol Genet 15:2087-2097). Primer sequences were
RT-PCR products (22 cycles) were separated on agarose gels, stained with SYBR green II, and scanned on a laser fluorimager (Molecular Dynamics). Band intensity was quantified using ImageQuant software. Total levels of ClC-1 mRNA were determined by quantitative real-time RT-PCR (Taqman, Applied Biosystems) relative to housekeeping gene RNA polymerase II transcription factor IIB.

Substance | myotonia (EMG) (Mbnl1^ΔE3/ΔE3 mice; listed as antisense morpholino) | ClC-1 exon 7a inclusion (ClC-1 exon 7a; 3 weeks (21 days) after single injection + electroporation, listed as antisense morpholino) | comparison of exon 7a skipping between antisense morpholinos (ClC-1 exon 7a) | comparison of exon 7a skipping between antisense morpholinos (ClC-1 exon 7a; listed as AON targeting the 3′ splice site) | ClC-1 exon 7a inclusion (ClC-1 exon 7a; 8 weeks after injection, 20 μg) | ClC-1 exon 7a inclusion (ClC-1 exon 7a; 8 weeks after injection, 20 μg, listed as antisense morpholino) | fraction of splice products encoding functional ClC-1 channels (band 1) (ClC-1 exon 7a; 21 days) | myotonia (EMG) (Mbnl1^ΔE3/ΔE3 mice) | ClC-1 exon 7a inclusion (ClC-1 exon 7a; 3 weeks (21 days) after single injection + electroporation)
antisense 1: morpholino 5′-CCAGGCACGGTCTGCAACAGAGAAG-3′ targeting the 3′ splice site of ClC-1 exon 7a (all phosphorodiamidate morpholino (PMO)) | reduced the myotonia | significant reduction of exon 7a inclusion; also recorded: suppressed to wild type (WT) levels | higher level of exon 7a skipping | more effective than targeting the 5′ splice site alone | remained partially suppressed | partial exclusion of exon 7a | increases the fraction of splice products encoding functional ClC-1 channels |  | 
control morpholino: control morpholino 5′-GAAGAGACAACGTCTGGCACGGACC-3′, the 5′-3′ invert of the 3′ splice site blocker (all phosphorodiamidate morpholino (PMO)) [reference compound] |  |  |  |  |  |  |  | not in muscle treated with invert control | no effect on ClC-1 splicing; also recorded: not different from untreated HSA^LR muscle
